These results are taken from US20190255073A1, “ESTERS OF 3-POLYAMINE DERIVATIVES OF BILE ACIDS FOR THE TREATMENT OF INFECTIONS” (VIRBAC, priority 2016, published 2019).

Converted amounts (≈) assume the structure as drawn. Like-named read-outs stand apart in the source and are kept apart here.

The subject of one experiment is E. coli (1956). As to the kind of experiment: MIC determination by microplate dilution, E. coli animal strain. The settings on record: Escherichia coli, Gram-negative, Mueller-Hinton medium, 24 h, 37° C. Format: cell-based, Escherichia coli. The protocol:
(§1) 1) Preparation of the Preculture
(§2) A negative control (2 mL of sterile culture medium)
(§3) A positive control (1940 μL of culture medium+40 μL of DMSO+20 μL of bacterial suspension) from a thawed biological strain (the biological strains are stored at −80° C. in glycerol).
(§4) The tubes were incubated at 37° C. for 24 hours at 100 rpm.
(§5) The microorganisms were handled under a type L2 laboratory fume cupboard and, before any handling, a UV cycle was programmed and only sterile material was used. […] The chemical compounds to be tested were prepared in a DMSO/methanol mixture (50/50) at a concentration of 5 mg/mL.
(§6) 2) Preparation of the Microplate for the Determination of the Minimum Inhibitory Concentration (MIC)
(§7) After 24 hours of incubation, a measurement of the optical density was taken using a spectrophotometer at 600 nm, collecting 100 μL of the bacterial suspension diluted in 900 μL of the sterile culture medium. This test required the use of a 96-well plate and the required volume of the microbial suspension to be seeded was calculated for an OD corresponding to a value equal to 0.01 in each well. In this plate, the first line corresponded to the negative control (195 μL of sterile culture medium in each well), the second line to the positive control (seeded culture medium supplemented with 2% of DMSO), the third line was loaded twice with bacterial suspension, 8 μL of test product were placed in each well. Thereafter, a 0.5 cascade dilution was performed from this line.
(§8) The first column served as inhibition control. A sterile filter was then placed on the microplate, allowing the passage of gases but not of contaminants. The microplate was incubated at 37° C. under a humid atmosphere for 24 hours.
(§9) NB: The medium used is Mueller-Hinton (MH) medium for bacteria. All the tests were performed in duplicate.
(§10) 4) Reading of the Results
(§11) After incubation, the filter was replaced with a transparent film, and an OD reading was then taken in an iEMS plate spectrophotometer at 620 nm. Calculation of the minimum inhibitory concentration (MIC) was performed.

Another experiment has as its system S. intermedius (1051997). Kind of experiment: MIC determination by microplate dilution, S. intermedius animal strain. Conditions: Staphylococcus intermedius, Gram-positive, Mueller-Hinton medium, 24 h, 37° C. The format is cell-based, Staphylococcus intermedius. On the procedure: as §1, §2, §3, §4, §5, §6, §7, §8, §9, §10, §11
For experiment [1], the system named is P. aeruginosa (1051575). Kind of experiment: MIC determination by microplate dilution, P. aeruginosa animal strain. The format is cell-based, Pseudomonas aeruginosa. Conditions: Pseudomonas aeruginosa, Gram-negative, Mueller-Hinton medium, 24 h, 37° C. On the procedure: as §1, §2, §3, §4, §5, §6, §7, §8, §9, §10, §11
In a further experiment the test system is E. coli ATCC28922. As to the kind of experiment: MIC determination by microplate dilution, E. coli human strain. The format is cell-based, Escherichia coli. The settings on record: Escherichia coli, ATCC28922, Gram-negative, Mueller-Hinton medium, 24 h, 37° C. The protocol: as §1, §2, §3, §4, §5, §6, §7, §8, §9, §10, §11
Experiment [2] deals with P. aeruginosa (1051575). Kind of experiment: Potentiation of the doxycycline activity at 2 μg/mL. The format is cell-based, Pseudomonas aeruginosa. The settings on record: in combination with doxycycline 2 μg/mL; 24 h, 37°.
The next experiment has as its system S. aureus (340). Kind of experiment: MIC determination by microplate dilution, S. aureus animal strain. Conditions: Staphylococcus aureus, Gram-positive, Mueller-Hinton medium, 24 h, 37° C. Format: cell-based, Staphylococcus aureus. On the procedure:
as §1, §2, §3, §4, §5, §6, §7, §8, §9, §10, §11

In a further experiment the test system is CHO-K1 cells. As to the kind of experiment: WST1 cytotoxicity test on CHO-K1 cells. The format is cell-based, Chinese hamster. The settings on record: Cricetulus griseus, read-out: IC50 (μg/mL) CHO. On the procedure: Test WST1 was used to measure the cytotoxic activity of the products. This is a colorimetric test which makes it possible to measure the viability and the degree of cell proliferation. It is based on cleavage of the colorless tetrazolium salts WST-1 (4-[3-(4-iodophenyl)-2-(4-nitrophenyl)-2H-5-tetrazolio]-1,3-benzene disulfonate) with mitochondrial dehydrogenases to the yellow-colored formazan derivative, which may be quantified by spectrophotometry at 420-480 nm.
The WST1 test was performed on Chinese hamster ovary cells. The CHO-K1 cells (ATCC, USA) are kept in culture on McCoy's 5A medium supplemented with 10% fetal calf serum, 2 mM of L-glutamine and a mixture of penicillin-streptomycin (100 U/ml: 10 μg/mL). The culture is incubated at 37° C. under an atmosphere enriched in CO2 (5%), and subcultured every two days.
The cells are transferred into 96-well plates (25 000 cells/mL) in whole McCoy's 5A medium, and maintained for 24 hours at 37° C. under a humid atmosphere enriched in CO2 (5%). Increasing concentrations of test products are added to the wells in double tests and 8 growth controls containing the cells in the medium alone are included in each series of tests. After 24 hours at 37° C. (5% CO2), the culture medium is removed, the cells are rinsed in phosphate buffer (PBS) and 50 μL of PBS containing 10% of reagent WST1 are added to each well. After 20 minutes of incubation at 37° C., the results are read by spectrophotometry at 450 nm.
The results are expressed in dose-response relationships, modeled by nonlinear regression analysis using the TableCurve software. The 50% inhibitory concentration (IC50) represents the concentration of product that is capable of reducing the cell viability by 50%.

Another experiment has as its system E. faecalis ATCC29212. As to the kind of experiment: MIC determination by microplate dilution, E. faecalis human strain. The format is cell-based, Enterococcus faecalis. Conditions: Enterococcus faecalis, ATCC29212, Gram-positive, Mueller-Hinton medium, 24 h, 37° C. On the procedure:
as §1, §2, §3, §4, §5, §6, §7, §8, §9, §10, §11

Another experiment relates to P. aeruginosa ATCC27853. As to the kind of experiment: MIC determination by microplate dilution, P. aeruginosa human strain. The format is cell-based, Pseudomonas aeruginosa. The settings on record: Pseudomonas aeruginosa, ATCC27853, Gram-negative, Mueller-Hinton medium, 24 h, 37° C. The protocol:
as §1, §2, §3, §4, §5, §6, §7, §8, §9, §10, §11

The subject of the next experiment is S. aureus ATCC25923. As to the kind of experiment: MIC determination by microplate dilution, S. aureus human strain. The format is cell-based, Staphylococcus aureus. Conditions: Staphylococcus aureus, ATCC25923, Gram-positive, Mueller-Hinton medium, 24 h, 37° C. On the procedure:
as §1, §2, §3, §4, §5, §6, §7, §8, §9, §10, §11

The mark [3] stands for this setting: Table III, WST1, CHO-K1 cells, 24 h, concentration reducing cell viability by 50%.

Usually MIC stands for the lowest concentration that inhibits growth of the organism. On to `COC(=O)CC[C@@H](C)[C@H]1CCC2C3CCC4C[C@@H](NCCCNCCCN)CC[C@]4(C)C3CC[C@@]21C` (stereo partly drawn) [(18), methyl 3β-norspermidinolithocholate], for which the MIC in the experiment with E. coli (1956) is 3 µg/mL (≈ 5.95 µM); against S. intermedius (1051997), 0.7 µg/mL (≈ 1.39 µM); in the experiment with P. aeruginosa (1051575) [1] it was 3 µg/mL (≈ 5.95 µM); against E. coli ATCC28922 it was 32 µg/mL (≈ 63.5 µM); in the experiment on S. aureus (340) it was 0.7 µg/mL (≈ 1.39 µM). For the same compound, in the experiment on P. aeruginosa (1051575) [2], the “MIC - P. aeruginosa (1051575): content of compound of formula (I) to restore the doxycycline activity (at 2 μg/mL)” value (“MIC - P. aeruginosa (1051575): content” below) was found to be 3 µg/mL. For the same compound, the IC50 in the experiment with CHO-K1 cells (CHO-K1, 24 h) turned out to be 80 µg/mL (≈ 159 µM).

With `CC(C)OC(=O)CC[C@@H](C)[C@H]1CCC2C3C(CC[C@@]21C)[C@@]1(C)CC[C@H](NCCNCCNCCNCCNCCN)CC1C[C@@H]3O` (stereo partly drawn) [(24), isopropyl 3β-(pentaethylenehexamine)ursodeoxycholate], the minimum inhibitory concentration (MIC) in the experiment on E. coli (1956) turned out to be 65 µg/mL (≈ 100 µM); with S. intermedius (1051997) it was 8 µg/mL (≈ 12.3 µM); with P. aeruginosa (1051575) [1] it was 130 µg/mL (≈ 200 µM); with S. aureus (340), 32 µg/mL (≈ 49.3 µM).

For `COC(=O)CC[C@@H](C)[C@H]1CCC2C3CCC4C[C@@H](NCCNCCNCCNCCNCCN)CC[C@]4(C)C3CC[C@@]21C` (stereo partly drawn) [(25), methyl 3β-(pentaethylenehexamine)lithocholate], the MIC against E. coli (1956) is 30 µg/mL (≈ 49.6 µM); with S. intermedius (1051997) it was 4 µg/mL (≈ 6.61 µM); in the experiment on P. aeruginosa (1051575) [1], 60 µg/mL (≈ 99.2 µM); in the experiment with E. coli ATCC28922, 30 µg/mL (≈ 49.6 µM); in the experiment with S. aureus (340) it was 8 µg/mL (≈ 13.2 µM); against E. faecalis ATCC29212, 15 µg/mL (≈ 24.8 µM). For the same compound, the MIC against P. aeruginosa ATCC27853 was found to be 60 µg/mL (≈ 99.2 µM); in the experiment on S. aureus ATCC25923, 8 µg/mL (≈ 13.2 µM). The IC50 in the experiment with CHO-K1 cells (setting [3]) was 76 µg/mL (≈ 126 µM).

`COC(=O)CC[C@@H](C)[C@H]1CCC2C3C(C[C@H](O)[C@@]21C)[C@@]1(C)CC[C@H](NCCCN(C)CCCN)C[C@H]1C[C@H]3O` (stereo partly drawn) [(33), methyl 3β-(bis(3-aminopropyl)methylamine)cholate]: the MIC against E. coli (1956) was 50 µg/mL (≈ 90.9 µM); in the experiment on S. intermedius (1051997), 14 µg/mL (≈ 25.5 µM); in the experiment with P. aeruginosa (1051575) [1], 50 µg/mL (≈ 90.9 µM); in the experiment on E. coli ATCC28922, 27 µg/mL (≈ 49.1 µM); against S. aureus (340), 14 µg/mL (≈ 25.5 µM); in the experiment on E. faecalis ATCC29212, 14 µg/mL (≈ 25.5 µM). The MIC in the experiment on P. aeruginosa ATCC27853 is 27 µg/mL (≈ 49.1 µM); with S. aureus ATCC25923, 14 µg/mL (≈ 25.5 µM). Further, the IC50 in the experiment on CHO-K1 cells (setting [3]) was 126 µg/mL (≈ 229 µM).

On to `CC(C)OC(=O)CC[C@@H](C)[C@H]1CCC2C3C(C[C@H](O)[C@@]21C)[C@@]1(C)CC[C@H](NCCN(CCN)CCN)CC1C[C@H]3O` (stereo partly drawn) [(35), isopropyl 3β-(tris(2-aminoethyl)amine)cholate], for which the MIC with E. coli (1956) is 56 µg/mL (≈ 96.7 µM); in the experiment on S. intermedius (1051997), 14 µg/mL (≈ 24.2 µM); in the experiment on P. aeruginosa (1051575) [1] it was 56 µg/mL (≈ 96.7 µM); in the experiment with E. coli ATCC28922, 28 µg/mL (≈ 48.4 µM); in the experiment with E. faecalis ATCC29212, 28 µg/mL (≈ 48.4 µM); against P. aeruginosa ATCC27853, 56 µg/mL (≈ 96.7 µM). This compound also yielded an MIC against S. aureus ATCC25923 of 28 µg/mL (≈ 48.4 µM). Further, the “MIC - P. aeruginosa (1051575): content” value in the experiment on P. aeruginosa (1051575) [2] stood at 7 µg/mL.

For the compound `CC(C)OC(=O)CC[C@@H](C)[C@H]1CCC2C3C(CC[C@@]21C)[C@@]1(C)CC[C@H](NCCCN(CCCN)CCCN)CC1C[C@@H]3O` (stereo partly drawn) [(42), isopropyl 3β-(tris(3-aminopropyl)amine)ursodeoxycholate], the MIC in the experiment with E. coli (1956) turned out to be 120 µg/mL (≈ 198 µM); against S. intermedius (1051997) it was 15 µg/mL (≈ 24.8 µM); against P. aeruginosa (1051575) [1] it was 60 µg/mL (≈ 99.2 µM); in the experiment with S. aureus (340) it was 30 µg/mL (≈ 49.6 µM). The “MIC - P. aeruginosa (1051575): content” value with P. aeruginosa (1051575) [2] turned out to be 4 µg/mL.
